Experiment: Thigh muscle MRI before and after ERT
Format: in vivo
Settings: at one year of ERT

rhGAA: human recombinant acid α-glucosidase; alglucosidase alfa (Myozyme/Lumizyme) enzyme replacement therapy given by intravenous infusion
decrease in muscle mass in posterior thigh: 11%
decrease in muscle mass in the anterior thigh: 9.8%
increase in intramuscular fat accumulation: 8.9%
subcutaneous fat: 6.6%

From US20150086530A1, “DOSING REGIMENS FOR THE TREATMENT OF POMPE DISEASE” (Amicus Therapeutics, Inc., priority 2012, published 2015)
